Reference: patent publication US7576057B2, “Cyclic peptides” (Scynexis, Inc., priority 2006, dated 2009)

Legend:
[1] = system: human T-lymphoblastoid cell line, CEM-SS; assay: Compound toxicity (MTS) in CEM-SS cells; assay type: cell-based
Procedure: Certain compounds of the present invention were also tested for antiretroviral activity against human immunodeficiency virus-1 (HIV) using infection of the human T-lymphoblastoid cell line, CEM-SS, with the HIV strain […] (Weislow et al., 1989, J. Natl. Cancer Inst. 81:577-586). In this MTS cytoprotection assay, each experiment included cell control wells (cells only), virus control wells (cells plus virus), drug toxicity wells (cells plus drug only), drug calorimetric control wells (drug only) as well as experimental wells (drug plus cells plus virus). Compounds were first dissolved in DMSO and tested using six half-log dilutions, starting with a high concentration of either 20 or 2 μM. HIV-1RF was added to each well in a volume of 50 μL, the amount of virus determined to give approximately 90% cell killing at 6 days post-infection. At assay termination, assay plates were stained with the soluble tetrazolium-based dye MTS (CellTiter 96 Reagent, Promega) to determine cell viability and quantify compound toxicity. MTS is metabolized by the mitochondria enzymes of metabolically active cells to yield a soluble formazan product, providing a quantitative analysis of cell viability and compound cytotoxicity. The assay was validated in parallel experiments using Zidovudine (3′-azido-3′-deoxythymidine or AZT) as a positive control. […]

[2] = system: human hepatoma cell line ET (lub ubi neo/ET); assay: Cytotoxicity (colorimetric cell number assay) in the ET line; details: cytotoxicity versus antiviral activity
Procedure: The compounds were dissolved in DMSO at five half-log concentrations each, ranging from either 0.03 to 3 μM or 1 to 100 μM. Subconfluent cultures of the ET line were plated out into 96 well plates dedicated for the analysis of cell numbers (cytotoxicity) or antiviral activity and the next day the compounds were added to the appropriate wells. […] Compound EC50 and EC90 values were derived from HCV RNA levels assessed as HCV RNA replicon derived LUC activity. Cytotoxicity was expressed as IC50 and IC90, the concentration of compound that inhibited cell viability by 50% and 90%, respectively. Compound IC50 and IC90 values were calculated using a colorimetric assay as an indication of cell numbers and cytotoxicity. The activity of the LUC reporter is directly proportional to HCV RNA levels in the human cell line. The HCV-replicon assay was validated in parallel experiments using interferon-alpha-2b as a positive control. Cyclosporine was also tested by way of comparison.

## C/C=C/C[C@@H](C)[C@@H](O)[C@H]1C(=O)N[C@@H](CC)C(=O)N(C)CC(=O)N(C)[C@@H](CC(C)C)C(=O)N[C@@H](C(C)C)C(=O)N(C)[C@@H](CC(C)C)C(=O)N[C@@H](C)C(=O)N[C@H](CCCCN(C)C)C(=O)N(C)[C@@H](CC(C)C)C(=O)N(C)[C@@H](CC(C)C)C(=O)N(C)[C@@H](C(C)C)C(=O)N1C [Compound 1, [(N,N-ε-Dimethyl)-D-lysyl]^8cyclosporine]
[1]
  cytotoxicity at the concentrations that inhibit HIV: not cytotoxic
[2]
  safety margin (antiviral IC50 versus cytotoxicity EC50): exhibited a safety margin

## C/C=C/C[C@@H](C)[C@@H](O)[C@H]1C(=O)N[C@@H](CC)C(=O)N(C)CC(=O)N(C)[C@@H](CC(C)C)C(=O)N[C@@H](C(C)C)C(=O)N(C)[C@@H](CC(C)C)C(=O)N[C@@H](C)C(=O)N[C@H](CCCCN)C(=O)N(C)[C@@H](CC(C)C)C(=O)N(C)[C@@H](CC(C)C)C(=O)N(C)[C@@H](C(C)C)C(=O)N1C [Compound 2, [D-Lysyl]^8cyclosporine]
[2]
  safety margin (antiviral IC50 versus cytotoxicity EC50): exhibited a safety margin
